Test system: ASPS-1 complex tumor spheroids, viability
Test: Anticancer human tumor ASPS-1 cell line growth inhibition;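 note: spheroids exposed to agents for 7 days after 3 days of growth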;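 for viability, T/C: 100% = DMSO vehicle treated spheroids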
Settings: for IC50: curve of first compound; for viability, T/C: stronger effect = lower value
Excerpt: Multicellular complex tumor spheroid response to DNA repair inhibitors in combination with DNA-damaging drugs
This study explores the anticancer activities of DNA-damaging drugs and inhibitors of DNA damage repair, both as single agents and in combinations. Complex tumor spheroids comprised of malignant cells, endothelial cells and mesenchymal stem cells served as an in vitro model for human solid tumors. This model system incorporates physiologically relevant features and patient-derived or established malignant cell lines with clinically relevant genetic alterations from many tumor types. Twenty-six patient-derived or established malignant cell lines were evaluated representing sarcoma, melanoma, small cell lung cancer (SCLC), non-small cell lung cancer (NSCLC), as well as bladder, ovarian and pancreatic cancers. The concentration ranges selected for each drug and investigational agent were based upon clinically achievable concentrations if the clinical Cmax of the agent was known.
Compounds. The drugs and compounds olaparib (NSC753686), talazoparib (NSC767125), berzosertib (NSC777718), elimusertib (NSC800525), nedisertib (NSC802822), VX-984 (NSC792969), AZD-1390 (NSC803789), temozolomide (NSC362856), topotecan (NSC609699), trabectedin (NSC813783), staurosporine (NSC755774), and gemcitabine (NSC613327) were obtained from the National Cancer Institute (NCI) Developmental Therapeutics Program Chemical Repository. The FDA-approved anticancer drug set is available from the Developmental Therapeutics Program at https://dtp.cancer.gov/organization/dscb/obtaining/available_plates.htm. […] The stock solutions were prepared in dimethyl sulfoxide (DMSO, Sigma-Aldrich, St. Louis, MO, cat. D2650) at 400-fold the tested concentration and stored at -70 degrees C. Prior to their use, the stock solutions were diluted in fresh medium and the final DMSO concentration in the assay was 0.25% (v/v). All drugs and investigational agents were tested over a range starting from a high concentration at or near the clinical Cmax and decreasing in half-log increments. If the clinical Cmax for an agent had not been determined, the highest concentration tested was 10 microM.
Cell Lines. The patient-derived cancer cell (PDC) lines: 156681-154-R-J1-PDC, 283228-195-R-J1-PDC, 287954-098-R-J1-PDC, 292921-168-R-J2-PDC, 349418-098-R-PDC, 425362-245-T-J1-PDC, 556581-035-R-J1-PDC, and BL0293-F563-PDC were received from the NCI Patient-Derived Models Repository (PDMR, https://pdmr.cancer.gov). The established cell lines HS-SY-2 (RRID:CVCL_8719), MPNST, and SYO-1 (RRID:CVCL_7146) were obtained from the Sloan Kettering Institute. The alveolar soft parts sarcoma cell line ASPS-1 (RRID:CVCL_S738) was established at the NCI and grown from internal seed stocks. The following established cell lines were purchased from the American Type Culture Collection (ATCC, Manassas, VA): G-401 (ATCC, cat. CRL-1441, RRID:CVCL_0270), SW982 (ATCC, cat. HTB-93, RRID:CVCL_1734), VA-ES-BJ (ATCC, cat. CRL-2138, RRID:CVCL_1785), NCI-H719 (ATCC, cat. CRL-5837, RRID:CVCL_1582), NCI-H196 (ATCC, cat. CRL-5823, RRID:CVCL_1509), NCI-H841 (ATCC, cat. CRL-5845, RRID:CVCL_1595), NCI-H1618 (ATCC, cat. CRL-5879, RRID:CVCL_1480), NCI-H1876 (ATCC, cat. CRL-5902, RRID:CVCL_1503), DMS 114 (ATCC, cat. CRL-2066; RRID:CVCL_1174), NCI-H211 (ATCC, cat. CRL-5824; RRID:CVCL_1529), and SW 1271 (ATCC, cat. CRL-2177, RRID:CVCL_1716). The small cell lung cancer cell line COR-L88 was purchased from Sigma-Aldrich (cat. 92031917-1VL, RRID:CVCL_1141). The non-small cell lung cancer cell lines NCI-H226 (RRID:CVCL_1544) and NCI-H322M (RRID:CVCL_1557) were established at the NCI and grown from internal seed stocks. Pooled donor human umbilical vein endothelial cells (HUVEC, Lonza, cat. CC-2519) and human mesenchymal stem cells (hMSC, Lonza, cat. PT-2501) were purchased from Lonza (Walkersville, MD).
Cell Culture. All cells were maintained in an incubator at 37 degrees C and 5% CO2 with 95% humidity. […]

[1] = second compound 0.003 µM, first compound 0.0949 µM
[2] = second compound 0.003 µM, first compound 0.3 µM
[3] = second compound 0.003 µM, first compound 0.949 µM
[4] = second compound 0.003 µM, first compound 3 µM
[5] = second compound 0.00949 µM, first compound 0.0949 µM
[6] = second compound 0.00949 µM, first compound 0.3 µM
[7] = second compound 0.00949 µM, first compound 0.949 µM
[8] = second compound 0.00949 µM, first compound 3 µM
[9] = second compound 0.03 µM, first compound 0.0949 µM
[10] = second compound 0.03 µM, first compound 0.3 µM
[11] = second compound 0.03 µM, first compound 0.949 µM
[12] = second compound 0.03 µM, first compound 3 µM
[13] = second compound 0.0949 µM, first compound 0.0949 µM
[14] = second compound 0.0949 µM, first compound 0.3 µM
[15] = second compound 0.0949 µM, first compound 0.949 µM
[16] = second compound 0.0949 µM, first compound 3 µM
[17] = second compound 0.3 µM, first compound 0.0949 µM
[18] = second compound 0.3 µM, first compound 0.3 µM
[19] = second compound 0.3 µM, first compound 0.949 µM
[20] = second compound 0.3 µM, first compound 3 µM

With `Cn1ncnc1[C@H]1c2n[nH]c(=O)c3cc(F)cc(c23)N[C@@H]1c1ccc(F)cc1` + CC[C@@]1(O)C(=O)OCc2c1cc1n(c2=O)Cc2cc3c(CN(C)C)c(O)ccc3nc2-1 the IC50 (second compound 0.003 µM) was over 3 µM, the IC50 (second compound 0.00949 µM) was over 3 µM and the IC50 (second compound 0.03 µM) was 2.61 µM. The IC50 (second compound 0.0949 µM) was under 0.00949 µM, the IC50 (second compound 0.3 µM) was under 0.00949 µM and the viability, T/C (second compound 0.003 µM, first compound 0.00949 µM) was 97.5%. The viability, T/C (second compound 0.003 µM, first compound 0.03 µM) was 98.3%, the viability, T/C [1] was 101% and the viability, T/C [2] was 98.4%. It also gave a viability, T/C [3] of 98.8%, a viability, T/C [4] of 76.5% and a viability, T/C (second compound 0.00949 µM, first compound 0.00949 µM) of 103%. For the same compound, the viability, T/C (second compound 0.00949 µM, first compound 0.03 µM) was 92%, the viability, T/C [5] was 100% and the viability, T/C [6] was 95.7%. The viability, T/C [7] was 86.6%, the viability, T/C [8] was 69.5% and the viability, T/C (second compound 0.03 µM, first compound 0.00949 µM) was 78.4%. For the same compound, the viability, T/C (second compound 0.03 µM, first compound 0.03 µM) was 75.9%, the viability, T/C [9] was 67.4% and the viability, T/C [10] was 61.4%. It also gave a viability, T/C [11] of 56.6%, a viability, T/C [12] of 49% and a viability, T/C (second compound 0.0949 µM, first compound 0.00949 µM) of 47%. For the same compound, the viability, T/C (second compound 0.0949 µM, first compound 0.03 µM) was 40.9%, the viability, T/C [13] was 43.5% and the viability, T/C [14] was 38.2%. It also gave a viability, T/C [15] of 38%, a viability, T/C [16] of 34.1% and a viability, T/C (second compound 0.3 µM, first compound 0.00949 µM) of 46.9%. For the same compound, the viability, T/C (second compound 0.3 µM, first compound 0.03 µM) was 41.9%, the viability, T/C [17] was 40% and the viability, T/C [18] was 41.3%. For the same compound, the viability, T/C [19] was 40.1% and the viability, T/C [20] was 39%.
`O=C(c1cc(Cc2n[nH]c(=O)c3ccccc23)ccc1F)N1CCN(C(=O)C2CC2)CC1` + CC[C@@]1(O)C(=O)OCc2c1cc1n(c2=O)Cc2cc3c(CN(C)C)c(O)ccc3nc2-1 showed an IC50 (second compound 0.003 µM) of over 30 µM, an IC50 (second compound 0.00949 µM) of over 30 µM and an IC50 (second compound 0.03 µM) of over 30 µM. For the same compound, the IC50 (second compound 0.0949 µM) was under 0.0949 µM, the IC50 (second compound 0.3 µM) was under 0.0949 µM and the viability, T/C [1] was 114%. The viability, T/C [2] was 107%, the viability, T/C [3] was 101% and the viability, T/C [4] was 105%. The viability, T/C (second compound 0.003 µM, first compound 9.49 µM) was 104%, the viability, T/C (second compound 0.003 µM, first compound 30 µM) was 97.3% and the viability, T/C [5] was 102%. The viability, T/C [6] was 106%, the viability, T/C [7] was 103% and the viability, T/C [8] was 105%. For the same compound, the viability, T/C (second compound 0.00949 µM, first compound 9.49 µM) was 101%, the viability, T/C (second compound 0.00949 µM, first compound 30 µM) was 93.5% and the viability, T/C [9] was 84.9%. The viability, T/C [10] was 88.8%, the viability, T/C [11] was 90.3% and the viability, T/C [12] was 77.4%. The viability, T/C (second compound 0.03 µM, first compound 9.49 µM) was 71.4%, the viability, T/C (second compound 0.03 µM, first compound 30 µM) was 66.1% and the viability, T/C [13] was 45.8%. It also gave a viability, T/C [14] of 50%, a viability, T/C [15] of 49% and a viability, T/C [16] of 48.6%. It also gave a viability, T/C (second compound 0.0949 µM, first compound 9.49 µM) of 40.1%, a viability, T/C (second compound 0.0949 µM, first compound 30 µM) of 49.7% and a viability, T/C [17] of 49.1%. It also gave a viability, T/C [18] of 45.4%, a viability, T/C [19] of 43.1% and a viability, T/C [20] of 44.2%. It also gave a viability, T/C (second compound 0.3 µM, first compound 9.49 µM) of 35.6% and a viability, T/C (second compound 0.3 µM, first compound 30 µM) of 42.2%.
